Experimental data as given in patent publication US7414042B2, “Method and composition for selectively inhibiting melanoma” (The Board of Trustees of The University of Illinois, priority 1995, dated 2008).
≈ marks a conversion by molar mass, not a printed value. Where two headings read alike, the source gives them in different places.

Key:
[1] = tested on: HT-1080 (sarcoma); test: Cytotoxicity against cultured human cancer cells (SRB); format: cell-based; settings: three days incubation; for IC50: Homo sapiens, HT-1080, 72 h, read-out: ED50 HT-1080
Protocol: (§1) The plates were incubated for three days. […] Dose response studies were performed to generate ED50 values.

[2] = tested on: U373 (glioma); test: as above; format: cell-based; settings: three days incubation, SRB; for IC50: Homo sapiens, U373 MG, 72 h, read-out: ED50 U373
Protocol: as §1

[3] = tested on: A431 (squamous cells); test: as above; format: cell-based; settings: three days incubation, SRB; for IC50: Homo sapiens, A-431, 72 h, read-out: ED50 A431
Protocol: as §1

[4] = tested on: BC-1 (breast); test: as above; format: cell-based; settings: three days incubation, SRB; for IC50: Homo sapiens, 72 h, read-out: ED50 BC-1
Protocol: as §1

[5] = tested on: ZR-75-1 (breast); test: as above; format: cell-based; settings: three days incubation, SRB; for IC50: Homo sapiens, ZR-75-1, 72 h, read-out: ED50 ZR 75-1
Protocol: as §1

[6] = tested on: LNCaP (prostate); test: as above; format: cell-based; settings: three days incubation, SRB; for IC50: Homo sapiens, LNCaP, 72 h, read-out: ED50 LNCaP
Protocol: as §1

[7] = tested on: KB (human oral epidermoid carcinoma); test: as above; format: cell-based; settings: three days incubation, SRB, Table 1; for IC50: Homo sapiens, 72 h, read-out: ED50 KB
Protocol: as §1

[8] = tested on: COL-2 (colon); test: as above; format: cell-based; settings: three days incubation, SRB; for IC50: Homo sapiens, Col2, 72 h, read-out: ED50 COL-2
Protocol: as §1

[9] = tested on: LU-1 (lung); test: as above; format: cell-based; settings: three days incubation; for IC50: Homo sapiens, 72 h, read-out: ED50 LU-1
Protocol: as §1

[10] = tested on: human melanoma and nonmelanoma cancer cell lines; test: Cytotoxicity profile across the panel of human cancer cell lines; settings: Table 1 panel
Protocol: (§2) In the following Table 1, the extracted betulinic acid and the other pure compounds were tested for cycotoxity against the following cultured human cell lines: A431 (squamous cells), BC-1 (breast), COL-2 (colon), HT-1080 (sarcoma), KB (human oral epidermoid carcinoma), LNCaP (prostate), LU-1 (lung), MEL-2 (melanoma), U373 (glioma) and ZR-75-1 (breast).
(§3) Cytotoxicity of the crude extracts and purified compounds was determined in a number of cultured human cancer cell lines. The cells were cultured in appropriate media and under standard conditions. To maintain logarithmic growth, the media were changed 24 hours prior to cytotoxic assays. On the day of the assay, the cells were harvested by trypsinization, counted, diluted in media, and added to 96-well plates containing test compounds dissolved in DMSO; the final DMSO concentration was 0.05%.
(§4) The plates were incubated for three days. Following the incubation period, the cells were fixed and stained with sulforhodamine B (SRB) dye. The bound dye was liberated with Tris base, and the OD515 was measured on an ELISA reader. The growth of the betulinic acid-treated cells was determined by the OD515 values, and the growth was compared to the OD515 values of DMSO-treated control cells. Dose response studies were performed to generate ED50 values.
(§5) The biological evaluation of the derivatives focused on the activity against human melanoma cell lines. In particular, the following betulinic acid derivatives were prepared and tested for cytotoxicity profile against human melanoma cell lines and against a number of selected nonmelanoma cell lines.

[11] = tested on: MEL-2 (melanoma); test: Cytotoxicity against cultured human melanoma cells (SRB); format: cell-based; settings: three days incubation, SRB, Table 1 and text; for IC50: Homo sapiens, MEL2, 72 h, read-out: ED50 MEL-2
Protocol: as §1

[12] = tested on: human melanoma and nonmelanoma cancer cell lines
Protocol: as §2, §3, §4, §5

| Structure (SMILES) | IC50 [1] [µg/mL] | IC50 [2] [µg/mL] | IC50 [3] [µg/mL] | IC50 [4] [µg/mL] | IC50 [5] [µg/mL] | IC50 [6] [µg/mL] | IC50 [7] [µg/mL] | IC50 [8] [µg/mL] | IC50 [9] [µg/mL] | cytotoxic activity profile, cell-type selectivity [10] | IC50 [11] [µg/mL] | other results |
| --- | --- | --- | --- | --- | --- | --- | --- | --- | --- | --- | --- | --- |
| CC[C@]1(O)C[C@@H]2CN(CCc3c([nH]c4ccccc34)[C@@](C(=O)OC)(c3cc4c(cc3OC)N(C)[C@H]3[C@@](O)(C(=O)OC)[C@H](OC(C)=O)[C@]5(CC)C=CCN6CC[C@]43[C@@H]65)C2)C1 [Vinbiastine, vinblastine] | 0.02 (≈ 0.0247 µM) | 1.1 (≈ 1.36 µM) | 0.05 (≈ 0.0617 µM) | 0.06 (≈ 0.074 µM) | 0.3 (≈ 0.37 µM) | 0.1 (≈ 0.123 µM) | 0.04 (≈ 0.0493 µM) | 0.01 (≈ 0.0123 µM) | 0.02 (≈ 0.0247 µM) | relatively intense, nonselective cytotoxic activity | 0.01 (≈ 0.0123 µM) |  |
| CO[C@H](C(=O)[C@@H](O)[C@@H](C)O)[C@@H]1Cc2cc3cc(O[C@H]4C[C@@H](O[C@H]5C[C@@H](O)[C@H](O)[C@@H](C)O5)[C@H](O)[C@@H](C)O4)c(C)c(O)c3c(O)c2C(=O)[C@H]1O[C@H]1C[C@@H](O[C@H]2C[C@@H](O[C@H]3C[C@](C)(O)[C@H](O)[C@@H](C)O3)[C@@H](O)[C@@H](C)O2)[C@H](O)[C@@H](C)O1 [Mithramycin A] |  |  |  |  |  |  |  |  |  | relatively intense, nonselective cytotoxic activity |  | ED50 HT-1080 [1]: 1.5 µg/mL (≈ 1.38 µM); ED50 U373 [2]: 0.04 µg/mL (≈ 0.0369 µM); ED50 A431 [3]: 0.09 µg/mL (≈ 0.0829 µM); ED50 BC-1 [4]: 0.3 µg/mL (≈ 0.276 µM); ED50 ZR 75-1 [5]: 0.2 µg/mL (≈ 0.184 µM); ED50 LNCaP [6]: 0.05 µg/mL (≈ 0.0461 µM); ED50 KB [7]: 0.09 µg/mL (≈ 0.0829 µM); ED50 COL-2 [8]: 0.06 µg/mL (≈ 0.0553 µM); ED50 LU-1 [9]: 0.2 µg/mL (≈ 0.184 µM); ED50 MEL-2 [11]: 1.2 µg/mL (≈ 1.11 µM) |
| Cc1c2ccncc2c(C)c2c1[nH]c1ccccc12 [Ellipticine] | 1.8 (≈ 7.31 µM) | 1.6 (≈ 6.5 µM) | 0.5 (≈ 2.03 µM) | 0.2 (≈ 0.812 µM) | 0.9 (≈ 3.65 µM) | 0.8 (≈ 3.25 µM) | 0.04 (≈ 0.162 µM) | 0.3 (≈ 1.22 µM) | 0.02 (≈ 0.0812 µM) |  | 0.9 (≈ 3.65 µM) | cytotoxic activity profile, cell-type selectivity [12]: relatively intense, nonselective cytotoxic activity |
